# Test results published in article PMC8920872 (Toxicology Reports, 2022).
# Read-outs that look alike come from different tables or passages of the source.
# Tests used:
# Type in all cases: cell-based
# [1] = test system: JIMT-1 breast cancer cells; assay: MTT dose response assay, JIMT-1; conditions: Homo sapiens, JIMT-1, 72 h
# [2] = test system: MCF-7 breast cancer cells; assay: MTT dose response assay, MCF-7; conditions: Homo sapiens, MCF7, 72 h
# [3] = test system: MCF-10A normal-like breast epithelial cells; assay: MTT dose response assay, MCF-10A; conditions: Homo sapiens, 72 h
# [4] = read-out: IC50 (mean of three repeats ± SD)
IC50 [1],IC50 [2],"IC50 [1, 4]",Structure (SMILES),IC50 [3],"IC50 [3, 4]"
1.7 ± 0.3 µM,15.9 ± 0.6 µM,,"C=C[C@@]12COC(=O)C(=C)[C@@H]1[C@H]1OC(=O)C(=C)[C@@H]1[C@@H](O)C2 [Vernolepin (5), Vernolepin]",2.3 ± 0.2 µM,
,,11.1 µM,"C=C[C@@]12COC(=O)C(=C)[C@@H]1[C@@H](O)[C@H](C(=C)C(=O)OC)[C@@H](OC(=O)C(=C)CO)C2 [Vernodalol, reference compound]",,12.1 µM
